These results are taken from publication PMC6562610, “Inhibition of Hedgehog Signaling in Fibroblasts, Pancreatic, and Lung Tumor Cells by Oxy186, an Oxysterol Analogue with Drug-Like Properties” (Cells, 2019).

Series [1] has as its system endogenous Gli activity in Sufu-/- cells. The series can be described thus: Gli responsive luciferase reporter in Sufu-/- cells. The note with it: 10 µM, 72 h. The format is cell-based, mouse. As for the experimental part: (§1) NIH3T3-E1 and Sufu^−/− cells cultured in 24-well plates at 90% confluence were transiently transfected with 0.1 µg of Gli response-element reporter (pGL3b-8xGli-Luciferase) plasmid, and 10 ng of pTK-Renilla-Luciferase plasmid with or without co-transfection with 10 ng of Gli1 overexpression vector, pSRα-Gli1, as previously described using Lipofectamine LTX Plus transfection reagent (Invitrogen). Twenty-four h after transfection, cells were treated with test agents for 72 h. Then the firefly and Renilla luciferase activities were measured using a dual luciferase kit (Promega, Madison, WI, USA) and a GloMax-96 Microplate Luminometer. The firefly luciferase activities were normalized to the Renilla luciferase activities. Data are reported as the mean of triplicate determinations ± SD.
Figure 5 Oxy186 acts downstream of Smo. (a) Sufu^−/− mouse embryonic fibroblast (MEF) cells were treated with DMEM containing 10% FBS in the presence or absence of Oxy186 (10 µM). After 72 h, RNA was extracted and analyzed by Q-RT-PCR for the expression of Hh target genes Gli1, Ptch1, and Hip, normalized to Oaz1 expression. […] Luciferase activity was measured and normalized to the Renilla luciferase activity. […]
For orientation: In a reporter assay the amount or activity of a reporter protein is the signal.

In a further series the test system is H2030 cells. The series is described as follows: Cell counting assay, H2030. The format is cell-based, human. As for the experimental part:
(§2) A549 and H2030 cells cultured in 12-well plates at 20% confluence were treated with Oxy186, HPI-1, Gant61, or GDC0449 for 96 hours and then trypsinized and suspended in fresh medium. An aliquot of cell suspension was applied to a hemocytometer and counted under a microscope.
(§3) Figure 6 Inhibition of human pancreatic and lung cancer cell proliferation by Oxy186. (a,c) A549, (b) and (d) H2030, (e) PANC-1, and (f) CAPAN-1 cells were treated with the compounds as indicated in RPMI 1640 (a–d) or DMEM (e,f) containing 5% FBS for 96 h and then were trypsinized and counted. Data from a representative experiment are reported as the mean of triplicate determinations ± SD (* p < 0.05 vs. Control; ** p < 0.01 vs. control).

Series [2] has as its system 8XGliBS-luciferase reporter responsive to Gli1 in NIH3T3-E1 cells. The series is described as follows: CM-induced 8XGliBS-luciferase reporter assay. Conditions: 72 h treatment. Type of series: cell-based, mouse. As for the experimental part: as §1
Figure 3 Inhibition of ligand-induced Hedgehog signaling. NIH3T3 cells were pretreated for 2 h with the oxysterols or various inhibitors, as indicated, in DMEM containing 5% FBS. Next, cells were treated with CAPAN-1 conditioned medium (CM) in the absence or presence of oxysterols or inhibitors. After 72 h, RNA was extracted and analyzed by Q-RT-PCR for the expression of Hh target genes Gli1 (a,b,d) and Ptch1 (c), and normalized to Oaz1 expression. […] Luciferase activity was measured and normalized to the Renilla luciferase activity. […]

A short description of series [3]: Metabolic stability in human liver microsomes. Type of series: in vitro ADME.
For series [4], the system named is Hh target genes, Gli1 and Ptch1. The series can be described thus: Induction of Hh target genes by oxysterol alone in NIH3T3-E1 cells, Q-RT-PCR. The format is cell-based, mouse. The note with it: up to 10 µM, no CM. As for the experimental part: Total RNA was extracted with the RNeasy Plus Mini Kit from Qiagen, according to the manufacturer’s instructions. One microgram of RNA was reverse-transcribed using an iScript Reverse Transcription Supermix from Bio-Rad, to make single-stranded cDNA. The cDNAs were then mixed with Qi SYBR Green Supermix (Bio-Rad, Hercules, CA, USA) for quantitative RT-PCR assay using a Bio-Rad I-cycler IQ quantitative thermocycler. All PCR samples were prepared in triplicate wells in a 96-well plate. After 40 cycles of PCR, melt curves were examined in order to ensure primer specificity. Fold changes in gene expression were calculated using the ΔΔCt method. Primers used for mouse were as follows: Oaz1 (5’-CCACTGCTTCGCCAGAGAG-3’) and (5’-CCCGGACCCAGGTTACTA-3’), Gli1 (5’-[…]-3’ and 5’-[…]-3’), Ptch1 (5’-CCATCGGCGACAAGAACC-3’ and 5’-[…]-3’), Hip (5’-[…]-3’ and 5’-[…]-3’), and Abca1 (5’-[…]-3’ and 5’-[…]-3’). […]
Figure 3 Inhibition of ligand-induced Hedgehog signaling. […] After 72 h, RNA was extracted and analyzed by Q-RT-PCR for the expression of Hh target genes Gli1 (a,b,d) and Ptch1 (c), and normalized to Oaz1 expression. […] Luciferase activity was measured and normalized to the Renilla luciferase activity. […]

The next series deals with A549 cells. The series is described as follows: Cell counting assay, A549. The note with it: 96 h. The format is cell-based, human. As for the experimental part:
as §2, §3

Another series deals with PANC-1 cells. The series is described as follows: Cell counting assay, PANC-1. Conditions: 96 h. Type of series: cell-based, human. As for the experimental part: as §2, §3

On to `C[C@]12CC[C@H](O)C[C@@H]1CC[C@@H]1[C@@H]2CC[C@@]2(C)[C@H]1CC[C@@H]2[C@](C)(O)CCc1ccc(F)cc1` [Oxy186, (3S,5S,8R,9S,10S,13S,14S,17S)-17-((R)-4-(4-fluorophenyl)-2-hydroxybutan-2-yl)-10,13-dimethylhexadecahydro-1H-cyclopenta[a]phenanthren-3-ol], for which the “Inhibition of Gli responsive luciferase reporter activity (endogenous Gli)” value in series [1] is given as “significantly inhibited”. The Anti-proliferative effect entry in the series on H2030 cells (96 h) is listed as “significant anti-proliferative effect”. For the same compound, the IC50 in the series with H2030 cells (Homo sapiens, NCI-H2030, 96 h, read-out: IC50 for inhibition of cell proliferation) worked out at 3.1 µM; with A549 cells (Homo sapiens, read-out: IC50 for inhibition of cell proliferation), 5 µM. The “Inhibition of CM-induced 8XGliBS-luciferase reporter activity” value in series [2] is listed as “significantly inhibited”. Also, the “HLM, Half-Life” value in series [3] is listed as 45 min. The amount remaining at 1 h in series [3] (60 min, read-out: HLM, % Remaining after 60 min) amounted to 40%. The half-life in series [3] (human, liver microsomes, read-out: HLM, Half-Life) was found to be 43 min. The “Induction of Hh target genes Gli1 and Ptch1” value in series [4] is “not”. The “Inhibition of cell proliferation” value with A549 cells (10 µM) is given as “significantly inhibited”. For the same compound, the Anti-proliferation effect entry in the series with PANC-1 cells is “significant anti-proliferation effects”.

In general, amount remaining refers to what is left of the initial amount, in per cent. The half-life is how long it takes for the measured level to halve.
